Data set [1] can be described thus: Incremental spectrophotometric titrations: protonation constants of 3,4,3-LI(CAM). The data set is classed as physicochemical. The note with it: I=0.1 M (KCl), T=25° C.; lower values = higher acidity. As for the experimental part: (§1) Solution Thermodynamics. All titrant solutions were degassed by boiling for 1 h while being purged under Ar. Carbonate-free 0.1 M KOH was prepared from concentrate (J.T Baker Dilut-It) and was standardized by titrating against 0.1 M potassium hydrogen phthalate (99.95%, Sigma Aldrich). Solutions of 0.1 M HCl were similarly prepared and were standardized by titrating against TRIS (99.9%, J.T. Baker). The glass electrode (Metrohm-Micro Combi-response to [H+]) used for the pH measurements was calibrated at 25.0° C. and at an ionic strength of 0.1 M (KCl) before each potentiometric or spectrophotometric titration. The calibration data were analyzed using the program GLEE (Gans & O'Sullivan, Talanta, 2000, 51 (1): 33-37) to refine for the E° and slope. […]
(§2) Incremental Spectrophotometric Titrations. […] For the 3,4,3-LI(CAM) protonation (and Eu(III)-3,4,3-LI(CAM) complexes), titrations were performed with an initial concentration of 50 μM of 3,4,3-LI(CAM) (and 50 μM of Eu(III)) resulting in absorbance values included between 0 and 1.0 throughout the titration. […]
(§3) Data Treatment. […] All metal and chelator concentrations were held at estimated values determined from the volume of standardized stock solutions. All species formed with 3,4,3-LI(CAM) were considered to have significant absorbance to be observed in the UV-vis spectra and were therefore included in the refinement process. […]

Data set [2] is described as follows: Incremental spectrophotometric titrations: stability constants of Eu(III) complexes. The data set is classed as physicochemical. Particulars: 1 equivalent of Eu(III); calculated speciation diagram. How it is done: as §1, §2, §3
The nature of data set [3]: Incremental spectrophotometric titrations: stability constants of Th(IV) complexes (DTPA competition). In kind it is physicochemical. Particulars: 1 equivalent of Th(IV); calculated speciation diagram. As for the experimental part: as §1, §2, §3
Data set [4] can be described thus: Incremental spectrophotometric titrations: stability constants of Zr(IV) complexes (DTPA competition). In kind it is physicochemical. Particulars: 1 equivalent of Zr(IV); calculated speciation diagram. How it is done:
as §1, §2, §3

Data set [5] deals with T1, recombinant wild-type Scn (Homo sapiens, UniProt P80188).
T1 construct: made in house
Kind of data set: Fluorescence Quenching Binding Assay. How it is done:
Metal, Chelator, and Protein Working Solutions. The trivalent lanthanide Ln(III) working stock solutions were prepared in standardized 0.1 M HCl. A Zr(IV) stock solution was prepared by dissolving ZrCl4 in 3.0 M H2SO4, to prevent hydrolysis. The metal salt ZrCl4 was handled and stored in a glovebox kept under inert atmosphere. The Zr(IV) stock solution was standardized against EDTA, with xylene orange as the indicator (Welcher, F. J. The analytical uses of ethylenediamine tetraacetic acid; 1958). A Th(IV) stock solution was prepared in 0.1 M H2SO4. […]
Fluorescence Quenching Binding Assay. […] Fluorescence quenching of Scn was measured after each titrant addition on a HORIBA Jobin Yvon IBH FluoroLog-3 spectrofluorimeter, with 3 nm slit band-pass, using the characteristic excitation and emission wavelengths λexc=280 and λem=320-360 nm. The intrinsic fluorescence in proteins is generally attributed to tryptophan residues; two residues W31 and W79 are found in the proximity of the Scn binding site. Fluorescence values were corrected for dilution upon addition of titrant. Fluorescence data were analyzed by nonlinear regression analysis of fluorescence response versus chelator concentration using a one-site binding model as described elsewhere. […]

The conditions of data set [6]: cited from earlier work.
Data set [7] can be described thus: In Vivo Biodistribution Assay with ^238Pu tracer. Also noted: species or system CD-1 mice. The note with it: mice, intravenous. How it is done:
In Vivo Biodistribution Assay. All procedures and protocols used in the presented in vivo studies were reviewed and approved by the Institutional Animal Care and Use Committee at Lawrence Berkeley National Laboratory and performed in AAALAC accredited facilities. The animals used were adult female CD-1 mice (180±7 days old, 40.8±5.8 g). Solutions of ^238Pu complexed by 3,4,3-LI(CAM) and Scn:3,4,3-LI(CAM) were prepared in situ at molar ratios protein:ligand:^238Pu of 0:100:1 and 100:100:1, respectively by mixing and incubating the appropriate quantities of ^238Pu(NO3)4, ligand, and protein in phosphate-buffered saline (PBS) to reach a ^238Pu concentration of 12 ng L-1. Protein solutions were washed thrice with PBS using 10 kDa molecular weight cut-off membrane-based centrifugal filters, and all solutions were filter-sterilized (0.22 μm) prior to injection. Under isoflurane anesthesia, groups of three normally fed mice were injected intravenously with 0.2 mL of a complex solution (370 Bq per mouse). After injection of the ^238Pu tracer, mice were weighed, identified, and housed in groups of three in plastic stock cages lined with a 0.5 cm layer of highly absorbent low-ash pelleted cellulose bedding (Alpha-dri) for separation of urine and feces. Mice were given water and food ad libitum and euthanized at 4, 24, or 48 h after tracer injection. All experiments using ^238Pu tracers were managed as metabolic balance studies, in which tissues and excreta were analyzed for ^238Pu by liquid scintillation counting on a Perkin Elmer Packard Tri-Carb model B4430. The methods of sample collection, preparation, radioactivity measurements, and data reduction have been published previously (Sturzbecher-Hoehne, et al., Dalton Transactions, 2011, 40 (33): 8340-8346: Kullgren, et al., Toxicology mechanisms and methods, 2013, 23 (1), 18-26; Durbin, et al., Health physics 2000, 78 (5): 511-521). Those methods provide quantitative measurements of radioactivity in biological samples; material recoveries averaged 99% of the amount injected in these experiments.
Biodistribution Evaluation. To evaluate the in vivo retention and excretion patterns of M(IV)-3,4,3-LI(CAM) complexes and their Scn adducts, ^238Pu(IV) was used as a radiolabel. ^238Pu(IV) likely behaves similarly to Th(IV) and Zr(IV) (the ionic radius of Pu^4+ is included between those of Th^4+ and Zr^4+) (Sturzbecher-Hoehne, et al., Inorganic Chemistry, 2015, 54 (7): 3462-3468) but allows for more accurate metabolic balance experiments due to its relatively long radioactive half-life (87.8 yr) and low specific activity (0.63 TBq/g), compared to the therapeutic ^227Th (18.68 d; 1139 TBq/g) and imaging ^89Zr (78.42 h; 16,630 TBq/g) isotopes. […] In this in vivo stability experiment, ^238Pu-ligand complex solutions were formed in situ (Ligand:Pu and Scn:Chelator:Pu ratios of 100:1 and 100:100:1, respectively) and administered intravenously. Mice were euthanized 4, 24, or 48 h after the metal injection, and tissues and excreta were radioanalyzed for ^238Pu content (FIG. 14).

Bounds are passed on as bounds.

On to `O=C(NCCCN(CCCCN(CCCNC(=O)c1cccc(O)c1O)C(=O)c1cccc(O)c1O)C(=O)c1cccc(O)c1O)c1cccc(O)c1O` [3,4,3-LI(CAM)], for which the “overall acidity ΣpKa5-8” value in data set [1] amounted to 45.4. The “pH at which complexation starts” value in data set [2] is 5. Also, the “pH at which complexes start forming” value in data set [3] and in data set [4] was around 3 in each case. Moreover, in data set [5], the Kd was 1.2 ± 0.4 nM.
With `O=C(NCCCN(CCCCN(CCCNC(=O)c1cccc(=O)n1O)C(=O)c1cccc(=O)n1O)C(=O)c1cccc(=O)n1O)c1cccc(=O)n1O` [3,4,3-LI(1,2-HOPO)], the “pH at which 4+ metal complexes are formed” value in data set [6] (4+ metals, very acidic conditions) is given as below 0. Further, the “pH at which Eu(III) species appear” value in data set [6] (Eu(III), same conditions) was 1.

B1: Scn:[Pu^IV(3,43-LI(CAM))]: siderocalin adduct of the ^238Pu(IV) complex of 3,4,3-LI(CAM), Scn:chelator:Pu 100:100:1 (conjugate, UniProt P80188 21-198, looked up)
Neutrophil …: QDSTSDLIPAPPLSKVPLQQNFQDNQFQGKWYVVGLAGNAILREDKDPQKMYATIYELKEDKSYNVTSVLFRKKKCDYWIRTFVPGCQPGEFTLGNIKSYPGLTSYLVRVVSTNYNQHAMVFFKKVSQNREYFKITLYGRTKELTSELKENFIRFSKSLGLPENHIVFPVPIDQCIDG
modifications: bound Pu(IV)-3,4,3-LI(CAM) complex
With B1, in data set [7], the in vivo stability result was “high in vivo stability”. In data set [7] (370 Bq per mouse, 48 h), the “injected ^238Pu excreted by 48 hours” value is 30%. For the same molecule, the “^238Pu found in the kidneys” value in data set [7] (4 h after administration) is listed as “up to 52%”. For the same molecule, the “^238Pu in urine versus feces” value in data set [7] (all time points (4, 24, 48 h)) is on record as “more ^238Pu was found in the urine than in the feces”. Moreover, the “retention and excretion pattern (kidney vs. liver)” value in data set [7] (early time points) is recorded as “favors elimination through the renal system”.

The values above are taken from US12257325B2, “Chelating platform for delivery of radionuclides” (priority 2016, dated 2025).
